Assay results taken from patent US8895585B2, “Nicotinamide derivative or salt thereof” (FUJIFILM Corporation, priority 2010, dated 2014).

Molecular target: T1, glutathione S-transferase (GST)-fused full-length human Syk protein (Homo sapiens, UniProt P43405)
T1 construct: (GST)-fused full-length human Syk protein; GST (glutathione S-transferase); purchased Carna Biosciences
Assay: Syk enzyme assay
Type: biochemical
Conditions: Syk enzyme assay, Test Example 1; read-out: IC50 of Syk-inhibitory activity
Summary of the method: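 GST-tagged full-length human Syk (baculovirus) preincubated with compound 15 min at room temperature (pH 7.0, 10 mM MgCl2), then reacted 40 min with 0.4 μM biotinylated peptide substrate and 27 μM ATP (final). Phosphorylation read by HTRF (615/665 nm) after EDTA stop; IC50 reported.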

IC50 [nM]	SMILES
10 to 50	Cc1cc(Nc2nc(NC3CCCCC3N)c(F)cc2C(N)=O)cnc1N1CCOCC1 (stereo not shown) [Example 002-071]
10 to 50	NC(=O)c1cc(F)c(NC2CCCCC2N)nc1Nc1cnc(N2CCOCC2)c(-c2ccoc2)c1 (stereo not shown) [Example 002-072]
50 to 100	CN(C)c1ccc(Nc2nc(NC3CCCCC3N)c(F)cc2C(N)=O)cn1 (stereo not shown) [Example 002-074]
10 to 50	NC(=O)c1cc(F)c(NC2CCCCC2N)nc1Nc1ccc(NCCO)nc1 (stereo not shown) [Example 002-075]
50 to 100	COCCNc1ccc(Nc2nc(NC3CCCCC3N)c(F)cc2C(N)=O)cn1 (stereo not shown) [Example 002-076]
10 to 50	NC(=O)c1cc(F)c(NC2CCCCC2N)nc1Nc1ccc(N2CCCC2)nc1 (stereo not shown) [Example 002-078]
50 to 100	NC(=O)c1cc(F)c(NC2CCCCC2N)nc1Nc1ccc(OCCO)nc1 (stereo not shown) [Example 002-079]
10 to 50	NC(=O)c1cc(F)c(NC2CCCCC2N)nc1Nc1ccc(NCCCN2CCOCC2)nc1 (stereo not shown) [Example 002-081]
< 10	CCCOc1cc(Nc2nc(NC3CCCCC3N)c(F)cc2C(N)=O)ccn1 (stereo not shown) [Example 002-082]
< 10	CC(C)COc1cc(Nc2nc(NC3CCCCC3N)c(F)cc2C(N)=O)ccn1 (stereo not shown) [Example 002-084]
10 to 50	COC(C)CCOc1cc(Nc2nc(NC3CCCCC3N)c(F)cc2C(N)=O)ccn1 (stereo not shown) [Example 002-085]
10 to 50	NC(=O)c1cc(F)c(NC2CCCCC2N)nc1Nc1ccnc(OCc2ccccc2)c1 (stereo not shown) [Example 002-086]
10 to 50	NC(=O)c1cc(F)c(NC2CCCCC2N)nc1Nc1ccc2cc(Cl)cnc2c1 (stereo not shown) [Example 002-087]
< 10	COc1ccc2ccc(Nc3nc(NC4CCCCC4N)c(F)cc3C(N)=O)cc2n1 (stereo not shown) [Example 002-088]
10 to 50	COc1ccnc2cc(Nc3nc(NC4CCCCC4N)c(F)cc3C(N)=O)ccc12 (stereo not shown) [Example 002-089]
< 10	COCCOc1ccc2ccc(Nc3nc(NC4CCCCC4N)c(F)cc3C(N)=O)cc2n1 (stereo not shown) [Example 002-090]
< 10	COCC(C)Oc1ccc2ccc(Nc3nc(NC4CCCCC4N)c(F)cc3C(N)=O)cc2n1 (stereo not shown) [Example 002-091]
< 10	COC(C)CCOc1ccc2ccc(Nc3nc(NC4CCCCC4N)c(F)cc3C(N)=O)cc2n1 (stereo not shown) [Example 002-092]
< 10	CCOCCOCCOc1ccc2ccc(Nc3nc(NC4CCCCC4N)c(F)cc3C(N)=O)cc2n1 (stereo not shown) [Example 002-093]
10 to 50	NC(=O)c1cc(F)c(NC2CCCCC2N)nc1Nc1cncc(C2CCCC2)c1 (stereo not shown) [Example 002-094]

IC50 [nM]	SMILES
< 10	NC(=O)c1cc(F)c(NC2CCCCC2N)nc1Nc1cncc(C2=CCCCC2)c1 (stereo not shown) [Example 002-095]
10 to 50	NC(=O)c1cc(F)c(NC2CCCCC2N)nc1Nc1cncc(C2CCCCC2)c1 (stereo not shown) [Example 002-096]
< 10	COCC(C)Oc1ccc2cc(Nc3nc(NC4CCCCC4N)c(F)cc3C(N)=O)ccc2n1 (stereo not shown) [Example 002-098]
< 10	COC(C)CCOc1ccc2cc(Nc3nc(NC4CCCCC4N)c(F)cc3C(N)=O)ccc2n1 (stereo not shown) [Example 002-099]
< 10	COc1ccc2cc(Nc3nc(NC4CCCCC4N)c(F)cc3C(N)=O)ccc2n1 (stereo not shown) [Example 002-101]
10 to 50	COCCOc1nccc2c(Nc3nc(NC4CCCCC4N)c(F)cc3C(N)=O)cccc12 (stereo not shown) [Example 002-102]
< 10	CCOc1ccc2cc(Nc3nc(NC4CCCCC4N)c(F)cc3C(N)=O)ccc2n1 (stereo not shown) [Example 002-103]
< 10	CCCOc1ccc2cc(Nc3nc(NC4CCCCC4N)c(F)cc3C(N)=O)ccc2n1 (stereo not shown) [Example 002-104]
10 to 50	CC(C)COc1ccc2cc(Nc3nc(NC4CCCCC4N)c(F)cc3C(N)=O)ccc2n1 (stereo not shown) [Example 002-105]
50 to 100	CCC(C)COc1ccc2cc(Nc3nc(NC4CCCCC4N)c(F)cc3C(N)=O)ccc2n1 (stereo not shown) [Example 002-106]
< 10	CCOCCOc1ccc2cc(Nc3nc(NC4CCCCC4N)c(F)cc3C(N)=O)ccc2n1 (stereo not shown) [Example 002-107]
10 to 50	CCCCOCCOc1ccc2cc(Nc3nc(NC4CCCCC4N)c(F)cc3C(N)=O)ccc2n1 (stereo not shown) [Example 002-108]
10 to 50	CC(C)COCCOc1ccc2cc(Nc3nc(NC4CCCCC4N)c(F)cc3C(N)=O)ccc2n1 (stereo not shown) [Example 002-109]
10 to 50	CCCCOCCOCCOc1ccc2cc(Nc3nc(NC4CCCCC4N)c(F)cc3C(N)=O)ccc2n1 (stereo not shown) [Example 002-111]
< 10	NC(=O)c1cc(F)c(NC2CCCCC2N)nc1Nc1ccc2nc(OCC3CCCO3)ccc2c1 (stereo not shown) [Example 002-112]
50 to 100	COCCn1c(=O)ccc2cc(Nc3nc(NC4CCCCC4N)c(F)cc3C(N)=O)cnc21 (stereo not shown) [Example 002-116]
< 10	COc1nc2ccc(Nc3nc(NC4CCCCC4N)c(F)cc3C(N)=O)cc2nc1OC (stereo not shown) [Example 002-119]
< 10	CCOc1nc2ccc(Nc3nc(NC4CCCCC4N)c(F)cc3C(N)=O)cc2nc1OCC (stereo not shown) [Example 002-120]
100 to 1000	COCCOc1nc2ccc(Nc3nc(NC4CCCCC4N)c(F)cc3C(N)=O)cc2nc1OCCOC (stereo not shown) [Example 002-121]
< 10	CN1CCOc2nc3ccc(Nc4nc(NC5CCCCC5N)c(F)cc4C(N)=O)cc3nc21 (stereo not shown) [Example 002-122]

IC50 [nM]	SMILES
< 10	CCc1nc2ccc(Nc3nc(NC4CCCCC4N)c(F)cc3C(N)=O)cc2nc1CC (stereo not shown) [Example 002-124]
10 to 50	CC1CN(c2ccc(Nc3nc(NC4CCCCC4N)c(F)cc3C(N)=O)cn2)CC(C)O1 (stereo not shown) [Example 002-127]
100 to 1000	NCCNCCNc1nc(Nc2ccc3ncccc3c2)c(C(N)=O)cc1F [Example 002-128]
100 to 1000	NCCNCCNc1nc(Nc2ccnc(-n3nccn3)c2)c(C(N)=O)cc1F [Example 002-129]
100 to 1000	NCCNCCNc1nc(Nc2ccnc(-n3cncn3)c2)c(C(N)=O)cc1F [Example 002-130]
10 to 50	COc1ccccc1-c1cc(Nc2nc(NC3CCCCC3N)c(F)cc2C(N)=O)ccn1 (stereo not shown) [Example 002-132]
< 10	NC(=O)c1cc(F)c(NC2CCCCC2N)nc1Nc1ccnc(-c2ccc(F)cc2F)c1 (stereo not shown) [Example 002-133]
10 to 50	Cc1ncc(Nc2nc(NC3CCCCC3N)c(F)cc2C(N)=O)cc1-n1cccn1 (stereo not shown) [Example 002-135]
50 to 100	COc1ccc(-c2cc(Nc3nc(NC4CCCCC4N)c(F)cc3C(N)=O)ccn2)c(OC)c1 (stereo not shown) [Example 002-136]
50 to 100	Cc1ncc(Nc2nc(NC3CCCCC3N)c(F)cc2C(N)=O)cc1-n1cncn1 (stereo not shown) [Example 002-138]
< 10	NC(=O)c1cc(F)c(NC2CCCCC2N)nc1Nc1ccc2cc(-n3cccn3)cnc2c1 (stereo not shown) [Example 002-143]
< 10	NC(=O)c1cc(F)c(NC2CCCCC2N)nc1Nc1ccnc(-c2cc(F)ccc2F)c1 (stereo not shown) [Example 002-145]
< 10	NC(=O)c1cc(F)c(NC2CCCCC2N)nc1Nc1ccnc(-c2cccc(Cl)c2F)c1 (stereo not shown) [Example 002-146]
< 10	NC(=O)c1cc(F)c(NC2CCCCC2N)nc1Nc1ccnc(-c2cc(Cl)ccc2F)c1 (stereo not shown) [Example 002-147]
10 to 50	COc1ncc(Nc2nc(NC3CCCCC3N)c(F)cc2C(N)=O)cc1-c1ccccc1 (stereo not shown) [Example 002-148]
10 to 50	COc1ncc(Nc2nc(NC3CCCCC3N)c(F)cc2C(N)=O)cc1-c1ccccc1F (stereo not shown) [Example 002-149]
10 to 50	COc1ncc(Nc2nc(NC3CCCCC3N)c(F)cc2C(N)=O)cc1-c1ccco1 (stereo not shown) [Example 002-150]
10 to 50	COc1ncc(Nc2nc(NC3CCCCC3N)c(F)cc2C(N)=O)cc1-c1ccoc1 (stereo not shown) [Example 002-151]
